According to patent US11135320B2, “Radioligands for pretargeted pet imaging and methods of their therapeutic use” (priority 2015, dated 2021):
“And” between values parts separate entries of the source, which are not always exact repeats. Identical values can stand only once.

Tested on: subcutaneous SW1222 xenografts (A33 antigen-expressing human colorectal carcinoma)
Assay: Pretargeted biodistribution with huA33-TCO and ^64Cu-tetrazine radioligand
Type: in vivo, athymic nude mice
Description: Female athymic nude mice bearing subcutaneous SW1222 (right shoulder) xenografts (100-150 mm^3, 18-21 days post-inoculation) were administered 100 μg (0.66 nmol) huA33-TCO (in 200 μL 0.9% sterile saline) via intravenous tail vein injection. […] The specific activity of the radiotracer was adjusted using cold ^natCu-Tz-SarAr such that the molar ratio of Tzinjected:huA^33injected=1:1. Animals (n=4 per group) were euthanized by CO2(g) asphyxiation at 1, 4, 12, and 24 h after injection. After asphyxiation, 13 tissues were removed, rinsed in water, dried in air for 5 min, weighed, and counted in a gamma counter calibrated for ^64Cu. Counts were converted into activity using a calibration curve generated from known standards. Count data were background- and decay-corrected to the time of injection, and the percent injected dose per gram (% ID/g) for each tissue sample was calculated by normalization to the total activity injected. Contents within the stomach, small intestine, and large intestine were not removed for the measurements.
Contents within the stomach, small intestine, and large intestine were not removed for the measurements. […] Zeglis, B. M. et al. “A pretargeted PET imaging strategy based on bioorthogonal Diels-Alder click chemistry.” Journal of Nuclear Medicine. 54, 1389-1396 (2013). ©2013 by the Society of Nuclear Medicine and Molecular Imaging, Inc.
Zeglis, B. M. et al. “A pretargeted PET imaging strategy based on bioorthogonal Diels-Alder click chemistry.” Journal of Nuclear Medicine. 54, 1389-1396 (2013). ©2013 by the Society of Nuclear Medicine and Molecular Imaging, Inc.
(§1) Female athymic nude mice bearing subcutaneous SW1222 (right shoulder) xenografts (100-150 mm^3, 18-21 days post-inoculation) were administered 100 μg (0.66 nmol) huA33-TCO (in 200 μL 0.9% sterile saline) via intravenous tail vein injection. After an accumulation interval of 48 h, the same mice were then administered ^64Cu-Tz-SarAr (300-350 μCi in 200 μL 0.9% sterile saline) via intravenous tail vein injection (t=0). The specific activity of the radiotracer was adjusted using cold ^natCu-Tz-SarAr such that the molar ratio of Tzinjected:huA^33injected=1:1. Animals (n=4 per group) were euthanized by CO2(g) asphyxiation at 1, 4, 12, and 24 h after injection. After asphyxiation, tissues were removed, rinsed in water, dried in air for 5 min, weighed, and counted in a gamma counter calibrated for ^64Cu. Counts were converted into activity using a calibration curve generated from known standards. Count data were background- and decay-corrected to the time of injection, and the percent injected dose per gram (% ID/g) for each tissue sample was calculated by normalization to the total activity injected. Contents within the stomach, small intestine, and large intestine were not removed for the measurements.
as §1, with “120” for “48”, “Contents within the stomach, small intestine, and large intestine were not removed for the measurements.” left out

[1] = 24 h accumulation interval, 1 h p.i.
[2] = 24 h accumulation interval, 4 h p.i.
[3] = 24 h accumulation interval, 12 h p.i.
[4] = 24 h accumulation interval, 24 h p.i.
[5] = 48 h accumulation interval, 1 h p.i.
[6] = 48 h accumulation interval, 4 h p.i.

NC12CNCCNCC(NCc3ccc(CNC(=O)CCCC(=O)NCc4ccc(-c5nncnn5)cc4)cc3)(CNCCNC1)CNCCNC2.[64Cu+2] [^64Cu-Tz-SarAr]
Blood activity concentration [1]: 4.2±0.8 % ID/g and 4.20 ± 0.80^a % ID/g
Bone activity concentration [1]: 0.67 ± 0.14 % ID/g
Heart activity concentration [1]: 1.81 ± 0.46 % ID/g
Kidney activity concentration [1]: 3.1±0.3 % ID/g and 3.08 ± 0.28 % ID/g
Large Intestine activity concentration [1]: 0.21±0.09 % ID/g
Liver activity concentration [1]: 1.60 ± 0.12 % ID/g
Lung activity concentration [1]: 1.65 ± 0.51 % ID/g
Muscle activity concentration [1]: 0.38 ± 0.06 % ID/g
Small Intestine activity concentration [1]: 0.88 ± 0.09 % ID/g
Spleen activity concentration [1]: 0.98 ± 0.25 % ID/g
Stomach activity concentration [1]: 0.73 ± 0.19 % ID/g
Tumor activity concentration [1]: 5.63±0.67 % ID/g
Tumor/Blood activity concentration ratio [1]: 1.34 ± 0.3
Tumor/Bone activity concentration ratio [1]: 8.43 ± 2.07
Tumor/Heart activity concentration ratio [1]: 3.11 ± 0.87
Tumor/Kidney activity concentration ratio [1]: 1.83 ± 0.27
Tumor/Large Intestine activity concentration ratio [1]: 26.88 ± 12.11
Tumor/Liver activity concentration ratio [1]: 3.52 ± 0.49
Tumor/Lung activity concentration ratio [1]: 3.40 ± 1.12
Tumor/Muscle activity concentration ratio [1]: 14.9±2.9 and 14.92 ± 2.85
Tumor/Small Intestine activity concentration ratio [1]: 6.42 ± 1.01
Tumor/Spleen activity concentration ratio [1]: 5.75 ± 1.61
Tumor/Stomach activity concentration ratio [1]: 7.75 ± 2.24
Blood activity concentration [2]: 4.0±0.37 % ID/g
Bone activity concentration [2]: 0.34 ± 0.18 % ID/g
Heart activity concentration [2]: 1.45 ± 0.03 % ID/g
Kidney activity concentration [2]: 2.77 ± 0.57 % ID/g
Large Intestine activity concentration [2]: 0.48 ± 0.09 % ID/g
Liver activity concentration [2]: 1.45 ± 0.21 % ID/g
Lung activity concentration [2]: 1.55 ± 0.45 % ID/g
Muscle activity concentration [2]: 0.37 ± 0.07 % ID/g
Small Intestine activity concentration [2]: 0.62 ± 0.06 % ID/g
Spleen activity concentration [2]: 0.81 ± 0.20 % ID/g
Stomach activity concentration [2]: 0.56 ± 0.20 % ID/g
Tumor activity concentration [2]: 5.56±0.91 % ID/g and 5.6±0.9 % ID/g
Tumor/Blood activity concentration ratio [2]: 1.39 ± 0.26
Tumor/Bone activity concentration ratio [2]: 16.15 ± 8.89
Tumor/Heart activity concentration ratio [2]: 3.84 ± 0.63
Tumor/Kidney activity concentration ratio [2]: 2.00 ± 0.53
Tumor/Large Intestine activity concentration ratio [2]: 11.65 ± 2.99
Tumor/Liver activity concentration ratio [2]: 3.83 ± 0.83
Tumor/Lung activity concentration ratio [2]: 3.59 ± 1.20
Tumor/Muscle activity concentration ratio [2]: 14.84 ± 3.69
Tumor/Small Intestine activity concentration ratio [2]: 8.96 ± 1.71
Tumor/Spleen activity concentration ratio [2]: 6.88 ± 2.01
Tumor/Stomach activity concentration ratio [2]: 9.91 ± 3.85
Blood activity concentration [3]: 2.19 ± 0.39 % ID/g
Bone activity concentration [3]: 0.23 ± 0.05 % ID/g
Heart activity concentration [3]: 0.84 ± 0.1 % ID/g
Kidney activity concentration [3]: 1.87 ± 0.42 % ID/g
Large Intestine activity concentration [3]: 0.20 ± 0.04 % ID/g
Liver activity concentration [3]: 1.33 ± 0.53 % ID/g
Lung activity concentration [3]: 1.24 ± 0.22 % ID/g
Muscle activity concentration [3]: 0.15 ± 0.01 % ID/g
Small Intestine activity concentration [3]: 0.35 ± 0.08 % ID/g
Spleen activity concentration [3]: 0.65 ± 0.17 % ID/g
Stomach activity concentration [3]: 0.21 ± 0.1 % ID/g
Tumor activity concentration [3]: 6.74±1.26 % ID/g
Tumor/Bone activity concentration ratio [3]: 29.8 ± 8.38
Tumor/Heart activity concentration ratio [3]: 8.01 ± 1.77
Tumor/Kidney activity concentration ratio [3]: 3.61 ± 1.05
Tumor/Large Intestine activity concentration ratio [3]: 33.67±8.82
Tumor/Liver activity concentration ratio [3]: 5.06 ± 2.23
Tumor/Lung activity concentration ratio [3]: 5.43 ± 1.41
Tumor/Small Intestine activity concentration ratio [3]: 19.37 ± 5.95
Tumor/Spleen activity concentration ratio [3]: 10.34 ± 3.27
Tumor/Stomach activity concentration ratio [3]: 31.76 ± 16.62
Blood activity concentration [4]: 2.61 ± 0.20 % ID/g
Bone activity concentration [4]: 0.29 ± 0.05 % ID/g
Heart activity concentration [4]: 0.81 ± 0.04 % ID/g
Kidney activity concentration [4]: 1.9±0.4 % ID/g and 2.00 ± 0.24 % ID/g
Large Intestine activity concentration [4]: 0.26 ± 0.06 % ID/g
Liver activity concentration [4]: 1.51 ± 0.2 % ID/g
Lung activity concentration [4]: 0.99 ± 0.24 % ID/g
Muscle activity concentration [4]: 0.20 ± 0.07 % ID/g
Small Intestine activity concentration [4]: 0.45 ± 0.07 % ID/g
Spleen activity concentration [4]: 0.64 ± 0.04 % ID/g
Stomach activity concentration [4]: 0.28 ± 0.07 % ID/g
Tumor activity concentration [4]: 7.38 ± 2.02 % ID/g
Tumor/Blood activity concentration ratio [4]: 2.83±0.81
Tumor/Bone activity concentration ratio [4]: 25.46 ± 8.22
Tumor/Heart activity concentration ratio [4]: 9.10 ± 2.54
Tumor/Kidney activity concentration ratio [4]: 3.68 ± 1.1
Tumor/Large Intestine activity concentration ratio [4]: 28.86 ± 10.28
Tumor/Liver activity concentration ratio [4]: 4.87 ± 1.48
Tumor/Lung activity concentration ratio [4]: 7.44 ± 2.74
Tumor/Muscle activity concentration ratio [4]: 37.37±16.1 and 37.37 ± 16.06
Tumor/Small Intestine activity concentration ratio [4]: 16.33 ± 5.12
Tumor/Spleen activity concentration ratio [4]: 11.45 ± 3.20
Tumor/Stomach activity concentration ratio [4]: 26.44 ± 9.89
activity concentration in all other non-target tissues (24 h accumulation interval, later time points, other than blood and kidneys): less than 1.5 % ID/g
Blood activity concentration [5]: 2.15 ± 0.5 % ID/g
Bone activity concentration [5]: 0.23 ± 0.05 % ID/g
Heart activity concentration [5]: 1.05 ± 0.24 % ID/g
Kidney activity concentration [5]: 1.98 ± 0.26 % ID/g
Large Intestine activity concentration [5]: 0.29 ± 0.09 % ID/g
Liver activity concentration [5]: 1.79 ± 0.09 % ID/g
Lung activity concentration [5]: 1.68 ± 0.09 % ID/g
Muscle activity concentration [5]: 0.22 ± 0.11 % ID/g
Small Intestine activity concentration [5]: 0.54 ± 0.15 % ID/g
Spleen activity concentration [5]: 0.84 ± 0.27 % ID/g
Stomach activity concentration [5]: 0.39 ± 0.17 % ID/g
Tumor activity concentration [5]: 4.49 ± 0.44 % ID/g
Tumor/Blood activity concentration ratio [5]: 2.09 ± 0.52
Tumor/Bone activity concentration ratio [5]: 19.48 ± 4.94
Tumor/Heart activity concentration ratio [5]: 4.27 ± 1.05
Tumor/Kidney activity concentration ratio [5]: 2.27 ± 0.37
Tumor/Large Intestine activity concentration ratio [5]: 15.48 ± 5.25
Tumor/Liver activity concentration ratio [5]: 2.51 ± 0.27
Tumor/Lung activity concentration ratio [5]: 2.67 ± 0.3
Tumor/Muscle activity concentration ratio [5]: 20.34 ± 10.25
Tumor/Small Intestine activity concentration ratio [5]: 8.35 ± 2.48
Tumor/Spleen activity concentration ratio [5]: 5.34 ± 1.79
Tumor/Stomach activity concentration ratio [5]: 11.57 ± 5.25
Blood activity concentration [6]: 1.78±0.28 % ID/g
Bone activity concentration [6]: 0.32 ± 0.12 % ID/g
Heart activity concentration [6]: 1.08 ± 0.32 % ID/g
Kidney activity concentration [6]: 1.83 ± 0.57 % ID/g
Large Intestine activity concentration [6]: 0.41 ± 0.11 % ID/g
Liver activity concentration [6]: 1.27 ± 0.19 % ID/g
Lung activity concentration [6]: 1.53 ± 0.28 % ID/g
Muscle activity concentration [6]: 0.24 ± 0.08 % ID/g
Small Intestine activity concentration [6]: 0.33 ± 0.1 % ID/g
Spleen activity concentration [6]: 0.6 ± 0.09 % ID/g
Stomach activity concentration [6]: 0.27 ± 0.18 % ID/g
Tumor activity concentration [6]: 5.2±1.4 % ID/g and 5.15 ± 1.42 % ID/g
Tumor/Blood activity concentration ratio [6]: 2.9 ± 0.92
Tumor/Bone activity concentration ratio [6]: 15.86 ± 7.12
Tumor/Heart activity concentration ratio [6]: 4.75 ± 1.92
Tumor/Kidney activity concentration ratio [6]: 2.81 ± 1.16
Tumor/Large Intestine activity concentration ratio [6]: 12.68 ± 4.87
Tumor/Liver activity concentration ratio [6]: 4.06 ± 1.27
Tumor/Lung activity concentration ratio [6]: 3.37 ± 1.11
Tumor/Muscle activity concentration ratio [6]: 21.84 ± 9.2
Tumor/Small Intestine activity concentration ratio [6]: 15.71 ± 6.48
Tumor/Spleen activity concentration ratio [6]: 8.55 ± 2.69
Tumor/Stomach activity concentration ratio [6]: 18.92 ± 13.29
